The values that follow come from patent US6815205B2, “Auxinic analogues of indole-3-acetic acid” (Invitrogen Corporation, priority 1995, dated 2004).

Entries after “also recorded” stand apart in the source; their conditions may differ.

What all share (type): cell-based
The test system of assay [1] is transformed tobacco. Briefly: Regeneration of Agrobacterium-mediated transformed tobacco tissue under kanamycin selection. The following applies: in the presence of BAP; 100 mg/l kanamycin. The procedure:
(§1) These IAA analogues were further evaluated for their abilities to effect the regeneration of plant tissues comprising foreign DNA. Tobacco and potato tissues were subjected to Agrobacterium-mediated transformation techniques, including cocultivation with Agrobacterium containing pBI121 and selecting with MS complete medium containing 0.5 mg/l BAP, 2 mg/l IAA derivative and 100 mg/l kanomycin.
(§2) Agrobacterium-mediated plant transformation was performed as described by Lin et al. (1994) Focus 16:72-77. For example:
In tobacco, the leaf discs were incubated with 10^9 cells/ml of Agrobacterium tumefaciens LBA4404 cells containing pBI121 in MS complete medium with 0.5 mg/l MES for 10 minutes, transferred to solid MS complete medium, and incubated for two days at 25° C., using an 18 hour light/6 hour dark cycle for cocultivation. After cocultivation, the explants were transferred to the MS medium containing a different ratio of BAP/IAA or BAP/IAA analogue, 100 mg/l kanamycin and 500 mg/l carbenicillin and incubated at 25° C. using an 18 hour light/6 hour dark cycle for shoot formation.

The test system of assay [2] is transformed potato. Nature of the assay: Regeneration of Agrobacterium-mediated transformed potato tissue under kanamycin selection. The following applies: in the presence of BAP; 100 mg/l kanamycin. The procedure:
as §1
Plant transformation in potato stems is carried out as described above in section (a) for tobacco.
as §2
In another example, potato leaf discs were transformed with the Agrobacterium-mediation technique as described above for tobacco. The potato explants were then subjected to incubation with IAA analogues in the absence and presence of cytokinin to screen for auxinic activities.

Assay [3] has as its system Cassava leaves and stems. Nature of the assay: Regeneration of shoots or calli from cassava leaves and stems with auxin in the presence of BAP. Particulars: 2 mg/l with 0.5 mg/l BAP, MS complete medium. As to the method: Further, examples of IAA analogues of the invention were evaluated for auxinic activity in the presence of a cytokinin.
In another embodiment of the invention, IAA analogues of the present invention were applied to the regeneration of plant tissues known in the art to be difficult to regenerate, such as cassava, woody plants, and monocotyledonous crops [Vasil and Vasil (1994) in Plant Cell and Tissue Culture (Vasil and Thorpe, eds.), Kluwer Academic Publishers, Dordrech, Netherlands; Chee (1995) Plant Cell Reports 14:753-757; Bums and Schwartz (1996) Plant Cell Reports 15:405-408; Mihaljevic et al. (1996) Plant Cell Reports 15:610-614; Schopke et al. (1996) Nature Biotechnology 14:731].
Stems or third young leaves were removed from the one month old Cassava plants and cut into small pieces. The explants were incubated on MS complete medium containing different concentrations of auxin related compounds and 0.5 mg/l benzylaminopurine (BAP).
Young tobacco leaves, potato stems, tomato leaves and cassava leaves and stems from one-month-old plants were removed and cut into small pieces. […]

Take `O=C(O)Cc1c[nH]c2ccc(F)cc12` [5-FIAA, 5-fluoroindole-3-acetic acid]: in assay [1], the “regeneration of kanamycin resistant calli and shoots in transformed tobacco” value was “stimulated”. For the same molecule, the “regeneration of kanamycin resistant calli in transformed potato” value in assay [2] was “stimulated”. Moreover, the “shoot formation in cassava stems and leaves” value in assay [3] was “promoted the formation of shoots in cassava stems and to a greater extent from cassava leaves; also recorded: regeneration of shoots”.
